Measurements reported in patent publication US20110178104A1, “Anti-Heparin Compounds” (POLYMEDIX INC., priority 2010, published 2011).

What was measured:
[1] = test system: unfractionated heparin (UFH); test: aPTT clotting assay, UFH 0.2 U/mL in plasma (Example 7); assay type: biochemical; settings: UFH 0.2 U/mL in plasma
Experimental: aPTT clotting Assay. Unfractionated heparin was mixed with plasma at a final concentration of 0.2 U/mL. […] The ACL Elite Hemostasis analyzer (Beckman Coulter™) was used to add aPTT reagent (HemosIL SynthASil) to supplemented plasma. Clotting was initiated by addition of CaCl2 and time to clot was recorded.

enoxaparin (ENOX) = test: FXa chromogenic assay (absence of plasma), enoxaparin; settings: enoxaparin 0.1 μg/mL, absence of plasma
fondaparinux (FONDAPX) = test: FXa chromogenic assay (absence of plasma), fondaparinux; settings: fondaparinux 0.02 μg/mL, absence of plasma
Experimental: Human antithrombin was mixed with an anticoagulant agent (a LMWH or fondaparinux); final concentrations were 0.22 μg/mL for the LMWHs and 0.07 μg/mL for fondaparinux. […] Absorbance was read every 30 seconds over a 4 minute period in a SpectraMax 250 instrument (Molecular Devices, Inc.). EC50 values are determined by a curve-fit program (SoftMax Pro) using the following formula:
FXa Chromogenic Assay (absence of plasma). Human antithrombin was mixed with an anticoagulant (a LMWH or fondaparinux); final concentrations were 0.1 μg/mL for the LMWHs and 0.02 μg/mL for fondaparinux. […] Absorbance was read every 30 seconds over a 4 minute period in a SpectraMax 250 instrument (Molecular Devices Inc.™) The slope of absorbance vs time was calculated for each compound concentration. EC50 values were determined using a curve fit program (GraphPad Prism 5).

Compound | UFH (aPTT) EC50 [1] | ENOX (FXa) EC50 (enoxaparin (ENOX)) [µg/mL] | FONDAPX (FXa) EC50 (fondaparinux (FONDAPX))
COc1ccc(NC(=O)[C@@H](CCCNC(=N)N)NC(=O)c2cc(NC(=O)[C@@H](CCCNC(=N)N)NC(=O)c3cc(NC(=O)[C@@H](CCCNC(=N)N)NC(=O)c4cc(NC(C)=O)ccc4OC)ccc3OC)ccc2OC)cc1C(N)=O [Compound 93] | 2.28 µg/mL | 0.38 | 0.42 µg/mL
COc1ccc(NC(=O)[C@H](C)NC(=O)c2cc(NC(=O)[C@H](CCCCN)NC(=O)c3cc(NC(=O)[C@H](CCCCN)NC(=O)c4cc(NC(=O)[C@@H](N)CCCCN)ccc4OC)ccc3OC)ccc2OC)cc1C(N)=O [Compound 94] | 4.94 µg/mL | 1.32 | >20 µg/mL
COc1ccc(NC(=O)[C@H](CCCCN)NC(=O)c2cc(NC(=O)[C@H](CCCCN)NC(=O)c3cc(NC(=O)[C@H](CCCCN)NC(=O)c4cc(NC(=O)[C@H](C)N)ccc4OC)ccc3OC)ccc2OC)cc1C(N)=O [Compound 95] | 2.42 µg/mL | 0.5734 | 5.277 µg/mL
COc1ccc(NC(=O)[C@H](CCCCN)NC(=O)c2cc(NC(=O)[C@H](CCCCN)NC(=O)c3cc(NC(=O)[C@H](CCCCN)NC(=O)c4cc(NC(=O)[C@@H](N)CCCCN)ccc4OC)ccc3OC)ccc2OC)cc1C(=O)O [Compound 96] | 3.59 µg/mL | 5.567 | inactive
CSc1ccc(NC(=O)[C@H](CCCNC(=N)N)NC(=O)c2cc(NC(=O)[C@H](CCCNC(=N)N)NC(=O)c3cc(NC(=O)[C@H](CCCNC(=N)N)NC(=O)c4cc(NC(=O)[C@@H](N)CCCNC(=N)N)ccc4SC)ccc3SC)ccc2SC)cc1C(N)=O [Compound 97] | >10 µg/mL | 0.9842 | >20 µg/mL
COc1ccc(NC(=O)[C@H](CCCCCN)NC(=O)c2cc(NC(=O)[C@H](CCCCCN)NC(=O)c3cc(NC(=O)[C@H](CCCCCN)NC(=O)c4cc(NC(=O)[C@@H](N)CCCCCN)ccc4OC)ccc3OC)ccc2OC)cc1C(N)=O [Compound 98] | 3.14 µg/mL | 0.1731 | inactive
COc1ccc(C(=O)N[C@@H](CCCCN)C(=O)Nc2ccc(OC)c(C(=O)N[C@@H](CCCCN)C(=O)Nc3ccc(OC)c(C(=O)N[C@@H](CCCCN)C(=O)Nc4ccc(OC)c(C(N)=O)c4)c3)c2)cc1NC(=O)[C@@H](N)CCCCN [Compound 99] | 1.54 µg/mL | 0.2998 | 6.132 µg/mL
COc1ccc(NC(=O)[C@H](CCCCN)NC(=O)c2cc(NC(=O)[C@H](CCCCN)NC(=O)c3cc(NC(=O)[C@H](CCCCN)NC(=O)c4c[nH]c5ccccc45)ccc3OC)ccc2OC)cc1C(N)=O [Compound 100] | 7.13 µg/mL | 1.12 | 2.482 µg/mL
COc1ccc(NC(=O)[C@H](CCCCN)NC(=O)c2cc(NC(=O)[C@H](CCCCN)NC(=O)c3cc(NC(=O)[C@H](CCCCN)NC(=O)c4cc(NC(=O)[C@@H](N)Cc5c[nH]c6ccccc56)ccc4OC)ccc3OC)ccc2OC)cc1C(N)=O [Compound 101] | approx 16 μg/mL | 0.8434 | 4.158 µg/mL
COc1ccc(NC(=O)[C@H](CCCCN)NC(=O)c2cc(NC(=O)[C@H](CCCCN)NC(=O)c3cc(NC(=O)[C@H](CCCCN)NC(=O)c4cc(C(=O)NCCCCCN)c(OC)cc4OC)ccc3OC)ccc2OC)cc1C(N)=O [Compound 102] | 3.32 µg/mL | 0.3328 | 2.938 µg/mL
COc1cc(OC)c(C(=O)N[C@H]2CC[C@@H](NC(=O)c3cc(C(=O)NCCN(C)C)c(OCCCCCNC(=N)N)cc3OCCCCCNC(=N)N)CC2)cc1C(=O)N[C@H]1CC[C@@H](NC(=O)c2cc(C(=O)NCCN(C)C)c(OCCCCCNC(=N)N)cc2OCCCCCNC(=N)N)CC1 [Compound 103] | >4 µg/mL | 0.23 | 0.64 µg/mL
COc1cc(OC)c(C(=O)N[C@H]2CC[C@H](NC(=O)c3cc(C(=O)NCCN(C)C)c(OCCCCCNC(=N)N)cc3OCCCCCNC(=N)N)CC2)cc1C(=O)N[C@H]1CC[C@@H](NC(=O)c2cc(C(=O)NCCN(C)C)c(OCCCCCNC(=N)N)cc2OCCCCCNC(=N)N)CC1 [Compound 104] | >10 µg/mL | 0.36 | 2.02 µg/mL
COc1cc(OC)c(C(=O)N[C@H]2CC[C@@H](NC(=O)c3cc(C(=O)NCCN(C)C)c(OCCNC(=N)N)cc3OCCNC(=N)N)CC2)cc1C(=O)N[C@H]1CC[C@@H](NC(=O)c2cc(C(=O)NCCN(C)C)c(OCCNC(=N)N)cc2OCCNC(=N)N)CC1 [Compound 105] | Inactive | 2.07 | >20 µg/mL
COc1cc(OC)c(C(=O)N[C@H]2CC[C@H](NC(=O)c3cc(C(=O)NCCN(C)C)c(OCCNC(=N)N)cc3OCCNC(=N)N)CC2)cc1C(=O)N[C@H]1CC[C@H](NC(=O)c2cc(C(=O)NCCN(C)C)c(OCCNC(=N)N)cc2OCCNC(=N)N)CC1 [Compound 106] | Inactive | 1.66 | >20 µg/mL
COc1ccc(NC(=O)[C@H](CCCCN)NC(=O)c2cc(NC(=O)[C@H](CCCCN)NC(=O)c3cc(NC(=O)[C@H](CCCCN)NC(=O)c4cc(NC(=O)[C@@H](N)CCCCN)ccc4OC)ccc3OC)ccc2OC)cc1C(=O)NCC(=O)O [Compound 107] | 1.34 µg/mL | 0.498 | 6.961 µg/mL
COc1ccc(NC(=O)[C@H](CCCCN)NC(=O)c2cc(NC(=O)[C@H](CCCCN)NC(=O)c3cc(NC(=O)[C@H](CCCCN)NC(=O)c4cc(NC(=O)[C@@H](N)CCCCN)ccc4OC)ccc3OC)ccc2OC)cc1C(=O)NCCC(=O)O [Compound 108] | 1.50 µg/mL | 0.6085 | 10.57 µg/mL
COc1ccc(NC(=O)[C@H](CCCCN)NC(=O)c2cc(NC(=O)[C@H](CCCCN)NC(=O)c3cc(NC(=O)[C@H](CCCCN)NC(=O)c4cc(NC(=O)[C@@H](N)CCCCN)ccc4OC)ccc3OC)ccc2OC)cc1C(=O)N[C@@H](C)C(=O)O [Compound 109] | 2.23 µg/mL | 0.6089 | 9.853 µg/mL
COc1ccc(NC(=O)[C@H](CCCCN)NC(=O)c2cc(NC(=O)[C@H](CCCCN)NC(=O)c3cc(NC(=O)[C@H](CCCCN)NC(=O)c4cc(NC(=O)[C@@H](N)CCCCN)ccc4OC)ccc3OC)ccc2OC)cc1C(=O)N[C@@H](Cc1ccccc1)C(=O)O [Compound 110] | 2.31 µg/mL | 0.694 | 2.951 µg/mL
COc1ccc(NC(=O)[C@H](CCCCN)NC(=O)c2cc(NC(=O)[C@@H](N)CCCCN)ccc2OC)cc1C(=O)N[C@@H](CCCCN)C(=O)Nc1ccc(OC)c(C(=O)N[C@@H](CCCCN)C(=O)Nc2ccc(OC)c(C(=O)N[C@H](Cc3ccccc3)C(=O)O)c2)c1 [Compound 111] | 2.54 µg/mL | 1.348 | >20 µg/mL
COc1ccc(NC(=O)[C@H](CCCCN)NC(=O)c2cc(NC(=O)[C@H](CCCCN)NC(=O)c3cc(NC(=O)[C@H](CCCCN)NC(=O)c4cc(NC(=O)[C@@H](N)CCCCN)ccc4OC)ccc3OC)ccc2OC)cc1C(=O)N[C@@H](Cc1ccc(O)cc1)C(=O)O [Compound 112] | 2.71 µg/mL | 0.257 | 0.717 µg/mL
COc1ccc(NC(=O)[C@H](CCCCN)NC(=O)c2cc(NC(=O)[C@H](CCCCN)NC(=O)c3cc(NC(=O)[C@H](CCCCN)NC(=O)c4cc(NC(=O)[C@@H](N)CCCCN)ccc4OC)ccc3OC)ccc2OC)cc1C(=O)N[C@@H](Cc1c[nH]c2ccccc12)C(=O)O [Compound 113] | 4.89 µg/mL | 0.2306 | 0.4025 µg/mL
COc1ccc(NC(=O)[C@H](CCCCN)NC(=O)c2cc(NC(=O)[C@@H](N)CCCCN)ccc2OC)cc1C(=O)N[C@@H](CCCCN)C(=O)Nc1ccc(OC)c(C(=O)N[C@@H](CCCCN)C(=O)Nc2ccc(OC)c(C(=O)N[C@H](C(=O)O)C(C)C)c2)c1 [Compound 114] | 3.00 µg/mL | 0.9758 | 12.56 µg/mL
COC(=O)c1cc(NC(=O)[C@H](CCCCN)NC(=O)c2cc(NC(=O)[C@H](CCCCN)NC(=O)c3cc(NC(=O)[C@H](CCCCN)NC(=O)c4cc(NC(=O)[C@@H](N)CCCCN)ccc4OC)ccc3OC)ccc2OC)ccc1OC [Compound 115] | 2.44 µg/mL | 0.7967 | >20 µg/mL
COc1ccc(NC(=O)[C@H](CCCCN)NC(=O)c2cc(NC(=O)[C@H](CCCCN)NC(=O)c3cc(NC(=O)[C@H](CCCCN)NC(=O)c4cc(NC(=O)[C@@H](N)CCCCN)ccc4OC)ccc3OC)ccc2OCC(=O)O)cc1C(N)=O [Compound 117] | 1.94 µg/mL | 0.9281 | 7.052 µg/mL
COc1ccc(NC(=O)[C@H](CCCCN)NC(=O)c2cc(NC(=O)[C@H](CCCCN)NC(=O)c3cc(NC(=O)[C@H](CCCCN)NC(=O)c4cc(NC(=O)[C@@H](N)CCCCN)ccc4OCC(=O)O)ccc3OC)ccc2OC)cc1C(N)=O [Compound 119] | 11.56 µg/mL | 0.9421 | 13.39 µg/mL
COc1ccc(NC(=O)[C@H](CCCNC(=N)N)NC(=O)c2cc(NC(=O)[C@H](CCCNC(=N)N)NC(=O)c3cc(NC(=O)[C@H](C)NC(=O)CCCCNC(=N)N)ccc3OC)ccc2OC)cc1C(N)=O [Compound 120] | 9.62 µg/mL | 1.36 | 5.96 µg/mL
